Assay results reported in ChEMBL document CHEMBL4177570, “Pyrazole C-region analogues of 2-(3-fluoro-4-methylsulfonylaminophenyl)propanamides as potent TRPV1 antagonists” (Bioorg Med Chem Lett, 2017).

Key:
[1] = molecular target: T1, Transient receptor potential cation channel subfamily V member 1 (Homo sapiens, UniProt Q8NER1); experiment: Antagonist activity at human TRPV1 expressed in CHO cells assessed as inhibition of capsaicin-induced intracellular calcium level preincubated for 6 mins followed by capsaicin addition by Fluo-4 dye based FLIPR assay; format: cell-based
T1 sequence (Q8NER1 whole entry): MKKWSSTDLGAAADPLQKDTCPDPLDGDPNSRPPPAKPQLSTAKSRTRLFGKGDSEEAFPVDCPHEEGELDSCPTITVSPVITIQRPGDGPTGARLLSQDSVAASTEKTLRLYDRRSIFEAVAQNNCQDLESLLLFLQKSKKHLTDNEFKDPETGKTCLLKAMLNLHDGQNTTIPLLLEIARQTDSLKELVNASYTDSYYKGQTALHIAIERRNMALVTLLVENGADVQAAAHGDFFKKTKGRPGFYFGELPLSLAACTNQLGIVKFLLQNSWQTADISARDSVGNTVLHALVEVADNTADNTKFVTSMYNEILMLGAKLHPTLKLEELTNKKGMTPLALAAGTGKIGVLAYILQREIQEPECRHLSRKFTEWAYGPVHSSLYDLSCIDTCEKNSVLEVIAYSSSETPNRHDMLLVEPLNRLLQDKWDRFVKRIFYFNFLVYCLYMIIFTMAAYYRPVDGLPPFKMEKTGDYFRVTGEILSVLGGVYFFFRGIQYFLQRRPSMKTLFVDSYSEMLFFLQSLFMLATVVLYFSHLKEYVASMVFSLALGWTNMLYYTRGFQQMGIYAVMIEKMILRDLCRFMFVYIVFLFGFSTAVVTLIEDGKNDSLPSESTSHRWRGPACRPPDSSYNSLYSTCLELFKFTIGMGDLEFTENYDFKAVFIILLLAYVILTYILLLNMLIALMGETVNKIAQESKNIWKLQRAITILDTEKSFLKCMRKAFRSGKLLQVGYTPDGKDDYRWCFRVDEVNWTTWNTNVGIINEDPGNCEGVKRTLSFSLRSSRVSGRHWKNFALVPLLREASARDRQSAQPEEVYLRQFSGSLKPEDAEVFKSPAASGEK

[2] = molecular target: T1, Transient receptor potential cation channel subfamily V member 1; experiment: Antagonist activity at pH 6 to 6.3 activated human TRPV1 expressed in CHO cells assessed as inhibition of intracellular calcium level preincubated with cells followed by receptor activation by Fluo-4 dye based FLIPR assay; format: cell-based
[3] = tested on: Mus musculus; experiment: Inhibition of capsaicin-induced hypothermia in NMRI mouse at 3 mg/kg, po pretreated for 15 mins followed by capsaicin treatment measured up to 120 mins relative to control; format: functional
[4] = molecular target: T1, Transient receptor potential cation channel subfamily V member 1; experiment: Antagonist activity at elevated temperature activated human TRPV1 expressed in CHO cells assessed as inhibition of intracellular calcium level preincubated for 5 mins followed by receptor activation by increasing temperature to 45 degC by Fluo-4 dye based FLIPR assay; format: cell-based
[5] = molecular target: T1, Transient receptor potential cation channel subfamily V member 1; experiment: Antagonist activity at human TRPV1 expressed in CHO cells assessed as inhibition of NADA-induced intracellular calcium level preincubated with cells followed by NADA addition by Fluo-4 dye based FLIPR assay

| Ki ([1]; read-out: Ki) [nM] | Ki ([1]; cho) | SMILES | also measured |
| --- | --- | --- | --- |
| 27.7 | – | CCCCCCn1nc(C(C)(C)C)cc1CNC(=O)C(C)c1ccc(NS(C)(=O)=O)c(F)c1 (stereo not drawn) | – |
| 50.2 | – | CCCCCn1nc(C(C)(C)C)cc1CNC(=O)C(C)c1ccc(NS(C)(=O)=O)c(F)c1 (stereo not drawn) | – |
| – | Not Active | CC(C(=O)NCc1cc(C(C)(C)C)nn1C)c1ccc(NS(C)(=O)=O)c(F)c1 (stereo not drawn) | – |
| – | – | C[C@H](C(=O)NCc1cc(C(C)(C)C)nn1-c1cccc(Cl)c1)c1ccc(NS(C)(=O)=O)c(F)c1 | IC50 [2]: Not Active; inhibition in vivo at 3 mg/kg [3]: 95%; IC50 [4]: Not Active; Ki [5]: 0.04 nM |
| – | Not Active | CC(C(=O)NCc1cc(C(C)(C)C)n[nH]1)c1ccc(NS(C)(=O)=O)c(F)c1 (stereo not drawn) | – |
| – | Not Active | CC(C)(C)c1cc(CNC(=O)C(c2ccc(NS(C)(=O)=O)c(F)c2)C2CCCCC2)n(-c2cccc(Cl)c2)n1 (stereo not drawn) | – |
| – | Not Active | Cc1ccc(C(C(=O)NCc2cc(C(C)(C)C)nn2-c2cccc(Cl)c2)c2ccc(NS(C)(=O)=O)c(F)c2)cc1 (stereo not drawn) | – |
| – | Not Active | CC(C)(C)c1cc(CNC(=O)C(c2cccc(F)c2)c2ccc(NS(C)(=O)=O)c(F)c2)n(-c2cccc(Cl)c2)n1 (stereo not drawn) | – |
| – | Not Active | COc1ccc(-n2nc(C(C)(C)C)cc2CNC(=O)C(C)c2ccc(NS(C)(=O)=O)c(F)c2)cc1 (stereo not drawn) | – |
| 5.1 | – | CCC/C=C/n1nc(C(C)(C)C)cc1CNC(=O)C(C)c1ccc(NS(C)(=O)=O)c(F)c1 (stereo not drawn) | – |
| – | – | C[C@H](C(=O)NCc1cc(C(F)(F)F)nn1-c1cccc(Cl)c1)c1ccc(NS(C)(=O)=O)c(F)c1 | inhibition in vivo at 3 mg/kg [3]: 85% |
| 0.1 | – | C[C@H](C(=O)NCc1cc(C(C)(C)C)nn1-c1ccc(F)c(Cl)c1)c1ccc(NS(C)(=O)=O)c(F)c1 | – |
| 8 | – | CC(C(=O)NCc1cc(C(C)(C)C)nn1-c1ccccc1)c1ccc(NS(C)(=O)=O)c(F)c1 (stereo not drawn) | – |
| 819 | – | Cc1ccc(/C=C/c2ccc(-n3nc(C(C)(C)C)cc3CNC(=O)C(C)c3ccc(NS(C)(=O)=O)c(F)c3)cc2)cc1 (stereo not drawn) | – |

| SMILES | Ki ([1]; read-out: Ki) [nM] | Ki ([1]; cho) | also measured |
| --- | --- | --- | --- |
| CC(C(=O)NCc1cc(C(F)(F)F)nn1-c1ccc(Cl)cc1)c1ccc(NS(C)(=O)=O)c(F)c1 (stereo not drawn) | 0.4 | – | – |
